The text below walks through data of PubChem BioAssay (NCI).

Assay in all cases: DTP human tumour cell line panel, 48 h
Assay [1] relates to CAKI-1 renal.
Assay [2] deals with HCT-116 colon.
The subject of assay [3] is OVCAR-4 ovarian.
The test system of assay [4] is RXF 393 renal.
The subject of assay [5] is 786-0 renal.
For assay [6], the system named is MALME-3M melanoma.
Assay [7] has as its system SN12C renal.
In assay [8] the test system is HL-60(TB) leukemia.
Assay [9] concerns NCI/ADR-RES ovarian.
The test system of assay [10] is MCF7 breast.

One may read the TGI as the concentration giving total growth inhibition. Higher therefore signals lower sensitivity of the cells. In general, GI50 refers to the concentration at which growth is held to half of that of the control.

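Five compound concentrations were applied to cells in 96-well plates for 48 hours; endpoints were derived by simple linear interpolation of the resulting dose-response curve. At the GI50, growth is halved. Definition used: TGI = concentration required for complete inhibition of growth.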

Regarding `O=C(/C=C/c1ccccc1O)c1ccccc1Cl`, the TGI in assay [1], in [2], in assay [3], in assay [4], in assay [5] and in [6] was above 100 µM each time. The TGI in assay [7] was above 100 µM; in assay [8] it was 63.8 µM.
As to `O=[N+]([O-])/C=C/c1ccc(Cl)cc1[N+](=O)[O-]`, the GI50 in assay [1] was 2.16 µM; in assay [2], 1.86 µM; in assay [3] it was 4.36 µM; in assay [4] it was 2.36 µM; in assay [5], 2.42 µM; in [6], 4.15 µM. The GI50 in [7] was 3.08 µM; in assay [9] it was 3.18 µM; in assay [8] it was 3.23 µM. Further, the TGI in [1] was determined as 9.09 µM; in [2], 3.67 µM; in [3], 15 µM; in assay [4], 4.02 µM; in [5], 4.62 µM; in [6], 16.7 µM. Also, the TGI was 20.9 µM in [7], 77.7 µM in [9] and 14.1 µM in assay [8].
For `COc1ccc(/C=C/C(=O)c2cc3c(N)c(C(=O)Nc4ccc(OC)cc4)sc3nc2C)cc1`, the GI50 was 0.593 µM in [1]; 0.0634 µM in [2]; 0.324 µM in assay [3]; 0.124 µM in assay [4]; 0.353 µM in assay [5]; 0.284 µM in assay [7]. Besides, the figures for the GI50 in [9], in [8] and in assay [10] were 0.185 µM, 0.323 µM and 0.0644 µM, respectively. In addition, the TGI in assay [1] was above 50 µM; in [2], 17.5 µM; in assay [3] it was above 50 µM; in [5] it was above 50 µM; in assay [7], above 50 µM; in assay [9], 1.49 µM. The values for the TGI in assay [8] and in [10] were 2.22 µM and above 50 µM, respectively.
As to `CC1(C)OC(=O)C(=C2CCC(C(=O)Nc3cccc(C(F)(F)F)c3)N2)C(=O)O1` (stereo not drawn), the total growth inhibition concentration (TGI) in assay [1] was 26.6 µM; in assay [2], above 100 µM; in assay [3], above 100 µM; in [4], above 100 µM; in assay [5], above 100 µM; in assay [6], above 100 µM. In addition, the concentration for total growth inhibition (TGI) in [7] and in assay [8] was above 100 µM in each case.
Take `COc1ccc(-c2csc(Nc3cccc(-c4csc(C)n4)c3)n2)cc1`: the GI50 in assay [1] was 1.15 µM; in [2], 1.8 µM; in assay [4] it was 1.87 µM; in assay [5], 2.14 µM; in [7] it was 0.97 µM; in assay [9], 0.534 µM. For the same compound, the concentration for 50% growth inhibition (GI50) in assay [8] is 0.138 µM; in assay [10] it was 0.31 µM. The TGI in assay [1] was above 14 µM; in assay [2], above 50 µM; in [4], above 14.9 µM; in [5], above 34.8 µM; in assay [7], 7.96 µM; in [9], 4.19 µM. Further, the concentration for total growth inhibition (TGI) is 3.88 µM in assay [8] and above 50 µM in assay [10].
Turning to `OCC(O)C(O)C(O)c1nn(-c2ccc(F)cc2)c2nc3cc(Cl)c(Cl)cc3nc12` (stereo not drawn), the TGI in assay [1] is 55.6 µM; in [2], above 100 µM; in [3], above 100 µM; in [4], 36.9 µM; in assay [5], 81.9 µM; in assay [6], 23.5 µM. For the same compound, the concentration for total growth inhibition (TGI) in [7] is 62.4 µM; in [8], above 100 µM.
With `Cc1ccc(S(=O)C(C)C(Cl)c2ccccc2)cc1` (stereo not drawn), the TGI in assay [1], in assay [2], in [3], in assay [4], in [5] and in assay [7] was above 100 µM in each case.
Regarding `N#Cc1cc(S(=O)(=O)Nc2nc3cc(Cl)ccc3o2)c(SCc2ccccc2)cc1Cl`, the GI50 was 18.5 µM in [1]; 15.4 µM in [2]; 15.9 µM in assay [3]; 12.5 µM in [4]; 15.7 µM in assay [5]; 15.4 µM in assay [7]. The GI50 in assay [9] was 13.8 µM; in [10] it was 17.3 µM. Moreover, the TGI in assay [1] worked out at 35.1 µM; in [2], 28.7 µM; in assay [3], 35.1 µM; in assay [4] it was 25 µM; in assay [5], 29.1 µM; in assay [7] it was 29.1 µM. The TGI amounted to 26.7 µM in [9] and 33.3 µM in assay [10].
For `COc1ccc(Br)c(C(=O)N2CCc3ccccc32)c1N`, the TGI in [2], in assay [3], in assay [4], in [5], in [6] and in [7] was above 100 µM in each case. Besides, the TGI in assay [8] was above 100 µM.
Turning to `Nc1ncc2ncn(C3CCC(CO)O3)c2n1` (stereo not drawn), the TGI in assay [1], in assay [2], in [3], in assay [5], in assay [7] and in [9] was above 100 µM each time. For the same compound, the TGI in assay [8] and in assay [10] was above 100 µM in each case.
For `O=C(O)CSc1n[nH]c(-c2ccco2)n1`, the TGI in assay [1], in assay [2], in assay [3], in assay [4], in assay [5] and in [6] was above 100 µM each time. Moreover, the TGI in [7] and in assay [8] was above 100 µM throughout.
With `N#CCc1cccc(CC#N)c1Br`, the TGI was above 100 µM in assay [1]; above 100 µM in assay [2]; above 100 µM in [3]; 93.7 µM in assay [4]; above 100 µM in [5]; above 100 µM in [6]. Also, the TGI in [7] and in assay [8] was above 100 µM in each case.
